US20260138961A1, “MODULATORS OF MITOCHONDRIAL DNA REPLICATION” (Pretzel Therapeutics, Inc., priority 2022, published 2026)

Molecular target: T1, POLγA:A467T (Homo sapiens, UniProt P54098, A467T)
T1 sequence (P54098 1-1239 A467T): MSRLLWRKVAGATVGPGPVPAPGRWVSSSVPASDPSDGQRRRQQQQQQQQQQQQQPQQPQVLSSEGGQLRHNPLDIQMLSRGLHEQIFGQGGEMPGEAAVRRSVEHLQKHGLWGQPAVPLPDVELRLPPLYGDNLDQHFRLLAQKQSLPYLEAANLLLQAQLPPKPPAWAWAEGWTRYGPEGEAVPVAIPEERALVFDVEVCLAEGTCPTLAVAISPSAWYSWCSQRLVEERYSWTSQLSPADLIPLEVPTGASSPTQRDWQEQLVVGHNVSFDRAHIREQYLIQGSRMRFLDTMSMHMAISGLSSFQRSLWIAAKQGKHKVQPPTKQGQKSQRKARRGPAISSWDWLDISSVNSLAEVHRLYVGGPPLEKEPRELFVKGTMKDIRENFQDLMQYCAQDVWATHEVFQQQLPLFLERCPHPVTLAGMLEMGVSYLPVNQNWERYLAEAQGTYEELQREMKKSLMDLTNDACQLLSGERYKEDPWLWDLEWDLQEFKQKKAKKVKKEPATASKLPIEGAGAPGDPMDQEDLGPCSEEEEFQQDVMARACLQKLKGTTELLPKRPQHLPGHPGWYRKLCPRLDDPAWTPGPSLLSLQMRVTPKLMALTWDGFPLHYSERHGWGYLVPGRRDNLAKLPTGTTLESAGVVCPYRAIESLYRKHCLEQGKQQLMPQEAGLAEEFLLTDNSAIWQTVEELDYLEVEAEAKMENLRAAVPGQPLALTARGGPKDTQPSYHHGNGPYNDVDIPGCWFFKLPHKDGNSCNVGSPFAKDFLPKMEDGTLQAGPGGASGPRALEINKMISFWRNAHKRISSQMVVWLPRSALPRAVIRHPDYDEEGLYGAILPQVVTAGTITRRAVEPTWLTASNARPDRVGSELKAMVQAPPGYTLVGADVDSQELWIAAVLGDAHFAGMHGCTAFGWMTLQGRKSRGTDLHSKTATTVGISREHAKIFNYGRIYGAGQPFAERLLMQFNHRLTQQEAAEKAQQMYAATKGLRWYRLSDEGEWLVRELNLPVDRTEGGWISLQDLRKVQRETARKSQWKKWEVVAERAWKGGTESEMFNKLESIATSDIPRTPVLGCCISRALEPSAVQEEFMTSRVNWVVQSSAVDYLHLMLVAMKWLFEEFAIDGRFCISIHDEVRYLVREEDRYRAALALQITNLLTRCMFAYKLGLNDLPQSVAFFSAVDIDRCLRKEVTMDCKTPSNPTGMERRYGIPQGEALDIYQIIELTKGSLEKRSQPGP
T1 sequence (Q9UHN1 1-485 partner): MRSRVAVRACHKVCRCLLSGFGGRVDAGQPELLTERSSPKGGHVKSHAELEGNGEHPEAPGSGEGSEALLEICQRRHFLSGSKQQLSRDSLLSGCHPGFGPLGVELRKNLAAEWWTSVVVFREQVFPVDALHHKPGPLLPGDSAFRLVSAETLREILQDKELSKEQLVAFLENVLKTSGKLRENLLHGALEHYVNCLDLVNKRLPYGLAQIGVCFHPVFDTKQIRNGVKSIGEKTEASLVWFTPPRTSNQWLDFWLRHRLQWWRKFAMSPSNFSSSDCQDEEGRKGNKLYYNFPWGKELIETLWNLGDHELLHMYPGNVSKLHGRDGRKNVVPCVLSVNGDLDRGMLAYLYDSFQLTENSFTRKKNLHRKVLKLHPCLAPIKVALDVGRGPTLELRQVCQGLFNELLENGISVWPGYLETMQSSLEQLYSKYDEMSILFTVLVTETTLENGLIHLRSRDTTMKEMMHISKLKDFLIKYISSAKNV
Experiment: DNA polymerization assay, POLγA:A467T mutant
Type: biochemical
Conditions: stimulation of polymerase activity, primed M13mp18 ssDNA, 37° C. 2 hours; read-out: A467T AC50
Procedure: DNA Polymerization Assay to Monitor Effects on Human Wildtype POLγ and Four Disease-Causing Mutant Variants of Human POLγ.
The ability of small molecules to stimulate the polymerase activity of POLγ was analyzed in a quantitative fluorescence SYBR Green I assay with fluorescence intensity (FI) readout.
In the presence of dNTPs, wild type human POLγ and mutant derivatives thereof were incubated with single-stranded, circular M13mp18 ssDNA hybridized to a short DNA oligonucleotide that functions as a primer for initiation of DNA synthesis. POLγ and mutant derivatives thereof will extend the primer and use the M13mp18 molecule as a template to synthesize long stretches of double-stranded DNA. SYBR Green I, which is a double-stranded DNA-binding dye, was used to quantify formation of double-stranded DNA in the reaction. When bound to double-stranded DNA, SYBR Green I fluorescence increases by up to 100-fold.
The assay was performed in the 384-well plate format. Upon addition of compounds, changes in double-stranded DNA synthesis activity can be monitored by following effects on fluorescent intensity.
The reactions also contained the accessory POLγB subunit, and the human mitochondrial single-stranded DNA binding protein (mtSSB).
The DNA template mixture used in the assay contained 0.5 nM primed M13 mp18 ssDNA, 400 nM mtSSB, 0.1 mM Tris-HCl (pH 8.0), 0.1 mM dNTP, 10 mM MgCl2, 0.1 mg/mL BSA, 1 mM TCEP solution, and 0.02% Triton X-100. The DNA template mixture for the wild type protein contained either 100 μM dNTP, 1 μM dNTP, or 0.1 μM dNTP, designated in Table 2 as 100 μM, 1 μM, and 0.1 μM, respectfully.
Microplates with compounds (0.1 μL in each well) to be tested in the assay were prepared from 10 mM compound stocks in 100% DMSO, and equal amounts of DMSO without any compound were added to positive and negative control wells.
The protein mixture was dispensed (5 μL into each well) into compound plates and incubated at 37° C. for 15 minutes. After incubation, 5 μL of the DNA template mixture was dispensed into each well. The plates were then incubated at 37° C. for 2 hours.
During incubation, a combined stop buffer and detection reagent solution was prepared. The buffer contained 25 mM EDTA (pH 8.0), 0.02% Triton X-100, and SYBR Green I [Invitrogen] diluted 10,000× (for fluorescent readout). EDTA will stop the enzymatic reaction by chelating magnesium ions.

`Cc1nc2c(NS(=O)(=O)c3cc(C)c(Cl)cc3C)cccc2s1` [Example 99, 4-chloro-2,5-dimethyl-N-(2-methylbenzo[d]thiazol-4-yl)benzenesulfonamide] and `Cc1cnc(-c2ccc(Cl)c(NS(=O)(=O)c3cc(C)c(Cl)cc3C)c2)s1` [Example 102, 4-chloro-N-(2-chloro-5-(5-methylthiazol-2-yl)phenyl)-2,5-dimethylbenzenesulfonamide] cannot be ordered by AC50: over 100 µM for the first, over 100 µM for the second.

`Cc1cc(S(=O)(=O)N[C@@H]2CCCN(C(=O)[C@H]3CCCN3C)C2)c(C)cc1Cl` [Example 100, 4-chloro-2,5-dimethyl-N-((R)-1-(methyl-D-prolyl)piperidin-3-yl)benzenesulfonamide] and `Cc1cc(S(=O)(=O)N[C@H]2CCCN(C(=O)[C@@H]3CCCN3C)C2)c(C)cc1Cl` [Example 101, 4-chloro-2,5-dimethyl-N-((S)-1-(methyl-L-prolyl)piperidin-3-yl)benzenesulfonamide] cannot be ordered by AC50: over 100 µM for the first, over 100 µM for the second.

`Cc1cnc(-c2cc(NS(=O)(=O)c3cc(C)c(Cl)cc3C)ccc2C)s1` [Example 103, 4-chloro-2,5-dimethyl-N-(4-methyl-3-(5-methylthiazol-2-yl)phenyl)benzenesulfonamide] and `Cc1cnc(-c2cc(NS(=O)(=O)c3cc(C)c(Cl)cc3C)ccc2Cl)s1` [Example 111, 4-chloro-N-(4-chloro-3-(5-methylthiazol-2-yl)phenyl)-2,5-dimethylbenzenesulfonamide] cannot be ordered by AC50: over 100 µM for the first, over 100 µM for the second.

`Cc1cc(S(=O)(=O)N[C@@H]2CCCN(C(=O)[C@@H]3CCCN3C)C2)c(C)cc1Cl` [Example 104, 4-chloro-2,5-dimethyl-N-((R)-1-(methyl-L-prolyl)piperidin-3-yl)benzenesulfonamide] and `Cc1cc(S(=O)(=O)Nc2cccc(C(=O)N3CCCC3)c2)c(C)cc1Cl` [Example 119, 4-chloro-2,5-dimethyl-N-(3-(pyrrolidine-1-carbonyl)phenyl) benzenesulfonamide] cannot be ordered by AC50: over 100 µM for the first, over 100 µM for the second.

`Cc1cc(S(=O)(=O)Nc2cccc(C(=O)N3CCCC4(CC4)C3)c2)c(C)cc1Cl` [Example 105, N-(3-(5-azaspiro[2.5]octane-5-carbonyl)phenyl)-4-chloro-2,5-dimethylbenzenesulfonamide] and `Cc1cc(S(=O)(=O)Nc2cccc(C(=O)N3CCCOC(C)(C)C3)c2)c(C)cc1Cl` [Example 106, 4-chloro-N-(3-(2,2-dimethyl-1,4-oxazepane-4-carbonyl)phenyl)-2,5-dimethylbenzenesulfonamide] cannot be ordered by AC50: over 100 µM for the first, over 100 µM for the second.

Compared with `Cc1cc(S(=O)(=O)Nc2cccc(C(=O)N3CCc4cn[nH]c4C3)c2)c(C)cc1Cl` [Example 107, 4-chloro-2,5-dimethyl-N-(3-(4,5,6,7-tetrahydro-1H-pyrazolo[3,4-c]pyridine-6-carbonyl)phenyl)benzenesulfonamide], `Cc1cc(S(=O)(=O)Nc2cccc(C(=O)N3CCc4ncnc(C)c4C3)c2)c(C)cc1Cl` [Example 114, 4-chloro-2,5-dimethyl-N-(3-(4-methyl-5,6,7,8-tetrahydropyrido [4,3-d]pyrimidine-6-carbonyl)phenyl)benzenesulfonamide] is higher in AC50: 28 µM for the first, over 100 µM for the second.

`Cc1cc(S(=O)(=O)Nc2cccc(C(=O)N3C[C@H](C)[C@@H](N)C3)c2)c(C)cc1Cl` [Example 108, N-(3-((3R,4S)-3-amino-4-methylpyrrolidine-1-carbonyl)phenyl)-4-chloro-2,5-dimethylbenzenesulfonamide] and `Cc1cc(S(=O)(=O)Nc2cccc(C(=O)N3C[C@@H](F)C[C@H](F)C3)c2)c(C)cc1Cl` [Example 115, 4-chloro-N-(3-((3S,5S)-3,5-difluoropiperidine-1-carbonyl)phenyl)-2,5-dimethylbenzenesulfonamide] cannot be ordered by AC50: over 100 µM for the first, over 100 µM for the second.

`Cc1cc(S(=O)(=O)Nc2cccc(C(=O)N(C)c3ccccn3)c2)c(C)cc1Cl` [Example 109, 3-((4-chloro-2,5-dimethylphenyl)sulfonamido)-N-methyl-N-(pyridin-2-yl)benzamide] and `Cc1cc(S(=O)(=O)Nc2cccc(C(=O)N(C(C)C)C3COC3)c2)c(C)cc1Cl` [Example 112, 3-((4-chloro-2,5-dimethylphenyl)sulfonamido)-N-isopropyl-N-(oxetan-3-yl)benzamide] cannot be ordered by AC50: over 100 µM for the first, over 100 µM for the second.

`Cc1cc(NS(=O)(=O)c2cc(C)c(Cl)cc2C)cc(-c2ncc(C)s2)c1` [Example 110, 4-chloro-2,5-dimethyl-N-(3-methyl-5-(5-methylthiazol-2-yl)phenyl)benzenesulfonamide] and `Cc1cc(S(=O)(=O)Nc2cccc(C(=O)N(CC(N)=O)C3CCCC3)c2)c(C)cc1Cl` [Example 113, N-(2-amino-2-oxoethyl)-3-((4-chloro-2,5-dimethylphenyl)sulfonamido)-N-cyclopentylbenzamide] cannot be ordered by AC50: over 100 µM for the first, over 100 µM for the second.

`Cc1cc(Cl)ccc1S(=O)(=O)Nc1cccc(C(=O)N2CCC[C@H]2C)c1` [Example 116, (R)-4-chloro-2-methyl-N-(3-(2-methylpyrrolidine-1-carbonyl)phenyl)benzenesulfonamide] and `Cc1cc(S(=O)(=O)Nc2cccc(C(=O)N3CCC[C@H]3C)c2)ccc1Cl` [Example 117, (R)-4-chloro-3-methyl-N-(3-(2-methylpyrrolidine-1-carbonyl)phenyl)benzenesulfonamide] cannot be ordered by AC50: over 100 µM for the first, over 100 µM for the second.

`C[C@@H]1CCCN1C(=O)c1cccc(NS(=O)(=O)c2ccc(C(F)(F)F)cc2)c1` [Example 118, (R)-N-(3-(2-methylpyrrolidine-1-carbonyl)phenyl)-4-(trifluoromethyl)benzenesulfonamide] and `O=S(=O)(Nc1csc(-c2ccccc2)n1)c1ccc(Cl)cc1` [Example 120, 4-chloro-N-(2-phenylthiazol-4-yl)benzenesulfonamide] cannot be ordered by AC50: over 100 µM for the first, over 100 µM for the second.

Molecule `O=S(=O)(Nc1csc(-c2ccccc2)n1)c1cccnc1` [Example 121, N-(2-phenylthiazol-4-yl)pyridine-3-sulfonamide] has an AC50 of over 100 µM.
